Tests used:
[1] = target: T1, human TRPM8 receptor expressed in transfected 293H cells (Homo sapiens, UniProt Q7Z2W7); test: TRPM8 Human Transient Potential Ion Channel Cell Based Agonist Calcium Flux Assay (FLIPR); settings: Ca2+ mobilization, fluorometric detection, 293H cells; response relative to 3 μM icilin; read-out: TRPM8 agonist EC50
T1 construct: expressed in transfected cells; host or cells: 293H cells
Source text: This example discloses results from TRPM8 Human Transient Potential Ion Channel Cell Based Agonist Calcium Flux Assay. Evaluation of the agonist activity of compounds at the human TRPM8 receptor expressed in transfected 293H cells, determined by measuring their effect on cytosolic Ca2+ ion mobilization using a fluorometric detection method.
Protocol: The cells are suspended in DMEM buffer (Invitrogen), then distributed in microplates at a density of 3×10^4 cells/well. The fluorescent probe (Fluo4 Direct, Invitrogen) in HBSS buffer (Invitrogen) complemented with 20 mM Hepes (Invitrogen) (pH 7.4) is then added into each well and equilibrated with the cells for 60 min at 37° C. then 15 min at 22° C. Thereafter, the assay plates are positioned in a microplate reader (CellLux, PerkinElmer) which is used for the addition of the test compound, reference agonist or HBSS buffer (basal control), and the measurements of changes in fluorescence intensity which varies proportionally to the free cytosolic Ca2+ ion concentration. For stimulated control measurements, Icilin at 3 μM is added in separate assay wells. The results are expressed as a percent of the control response to 3 μM icilin. The standard reference agonist is Icilin, which is tested in each experiment at several concentrations to generate a concentration-response curve from which its EC50 value is calculated. (Behrendt, H. J., Germann, T., Gillen, C and Hatt, H. and Jostock, R. (2004), Characterization of the mouse cold-menthol receptor TRPM8 and vanilloid receptor type-1 VR1 using a fluorometric imaging plate reader (FLIPR) assay, Br. J. Pharmacol., 141: 737.)
Data analysis: EC50 values were determined as the concentration of test substance required to produce half-maximal increases in [Ca^2+]. Maximal [Ca^2+] responses were measured as peak fluorescence intensity (FI) minus basal FI, and expressed as percentages of the maximum response to icilin. Data are given as means±s.e.m., unless otherwise stated.
The EC50 values (concentration producing a half-maximal response) and IC50 values (concentration causing a half-maximal inhibition of the control agonist response) were determined by non-linear regression analysis of the concentration-response curves generated with mean replicate values using Hill equation curve fitting:
where Y=response, A=left asymptote of the curve, D=right asymptote of the curve, C=compound concentration, and C50=EC50, and nH=slope factor.

[2] = Solubility assay in DI water; assay type: physicochemical; settings: DI water, thermodynamic from solid, HCl salts, visual, stepwise dilution from 200 mg/mL, sonication and vortex
Protocol: In order to determine the aqueous solubility of the compounds indicated, the HCl salts of the following compounds were incubated at 200 mg/mL in DI water followed by sonication for 60 seconds and then vortex stirring for 60 seconds. If insoluble material was observed, the sample was diluted to 150, 100, 50, 25, or 20 mg/mL until no insoluble material was observed. After each dilution, each sample was sonicated for 60 seconds, vortexed for 60 seconds and let equilibrate with occasional shaking for 30 minutes.

[3] = Solution state stability assay; assay type: physicochemical; settings: 50° C.; for % degradation at 28 days: HPLC
Protocol: Compounds were incubated in the buffer media indicated (ingredients for making of PBS buffer and sodium citrate/citric acid buffer were obtained from Sigma-Aldrich, St. Louis, MO, USA). The reactions were conducted at either 50° C. and for 28 days. Samples were collected at specific time points and analyzed for % degradation of the parent compound based on UV/Vis analysis.
Methods: Samples were weighed using a Mettler Toledo XS105 analytical balance (accurate to +/−0.01 mg). Accurate dilutions were made with a P1000, P200, or P20 Gilson Pipetman, or an Eppendorf Maxipettor 1-10 mL pipettor. pH Measurements were made with a Hanna Instruments HI 4222 pH meter and a Hanna instruments HI 1330B micro pH probe. Samples were analyzed via high pressure liquid chromatography using an Agilent series 1100 HPLC instrument with a Grace Alltima column. Chromatograms were manually integrated. Individual chromatograms are assigned an automatic HPLC identification number.
Freshly prepared 1.0 mg/mL solution of each compound listed in Table # was allotted into two-dram clear glass vials. […] The vials were then stored in an oven set to 50° C. At the appropriate time points, the vials were removed from the oven, vortexed for 30 seconds and an aliquot (400 μL) was pipetted into an HPLC vial and quenched with 1% TFA in ACN (400 μL). […] For all samples, aliquots were taken after 28 days. Quenched vials were immediately analyzed via HPLC.

[4] = cited from earlier work

T1 sequence (Q7Z2W7 whole entry): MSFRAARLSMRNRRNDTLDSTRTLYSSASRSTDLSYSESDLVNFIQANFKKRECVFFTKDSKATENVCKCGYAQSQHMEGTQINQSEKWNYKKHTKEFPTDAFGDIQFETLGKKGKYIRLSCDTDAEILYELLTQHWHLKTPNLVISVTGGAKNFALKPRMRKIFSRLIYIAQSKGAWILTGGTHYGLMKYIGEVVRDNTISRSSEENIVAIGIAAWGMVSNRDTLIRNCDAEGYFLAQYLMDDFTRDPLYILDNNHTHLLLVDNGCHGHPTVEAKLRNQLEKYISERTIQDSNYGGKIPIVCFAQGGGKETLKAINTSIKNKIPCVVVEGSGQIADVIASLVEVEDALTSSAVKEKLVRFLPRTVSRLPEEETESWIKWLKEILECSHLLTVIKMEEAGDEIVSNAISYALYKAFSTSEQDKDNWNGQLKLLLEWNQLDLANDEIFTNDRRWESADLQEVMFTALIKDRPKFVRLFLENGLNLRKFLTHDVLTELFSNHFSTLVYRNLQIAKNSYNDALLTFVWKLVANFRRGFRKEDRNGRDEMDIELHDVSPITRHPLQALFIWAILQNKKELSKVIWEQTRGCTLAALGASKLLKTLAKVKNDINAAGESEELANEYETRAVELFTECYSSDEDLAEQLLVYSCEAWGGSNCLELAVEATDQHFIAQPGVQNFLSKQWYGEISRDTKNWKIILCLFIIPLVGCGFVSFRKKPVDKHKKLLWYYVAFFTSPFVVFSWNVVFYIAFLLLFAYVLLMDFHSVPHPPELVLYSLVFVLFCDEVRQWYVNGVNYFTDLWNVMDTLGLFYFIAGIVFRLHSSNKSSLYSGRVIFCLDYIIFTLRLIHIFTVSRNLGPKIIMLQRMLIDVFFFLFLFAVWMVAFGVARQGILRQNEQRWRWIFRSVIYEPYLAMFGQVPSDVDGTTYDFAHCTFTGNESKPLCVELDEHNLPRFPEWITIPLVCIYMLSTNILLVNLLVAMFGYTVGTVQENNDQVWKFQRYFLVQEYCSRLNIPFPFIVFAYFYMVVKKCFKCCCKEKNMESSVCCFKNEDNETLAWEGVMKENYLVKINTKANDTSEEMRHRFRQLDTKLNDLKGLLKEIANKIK

Row | Structure (SMILES) | EC50 [1] | solubility at 30 min [2] | aqueous stability / hydrolysis, comparison in words ([3]; buffer, 28 days) | % degradation at 28 days ([3]; pH = ~5.0 (0.2 M aqueous sodium citrate/citric acid buffer)) | % degradation at 28 days ([3]; pH = ~7.4 (1X Phosphate Buffered Saline)) | known aqueous solubility in water [4]
1 | CC(C)[C@@H]1CC[C@@H](C)C[C@H]1C(=O)NCc1ccc(CN)cc1.Cl [Compound 4, (1R,2S,5R)-N-(4-(aminomethyl)benzyl)-2-isopropyl-5-methylcyclohexanecarboxamide hydrochloride] | 100 nM | ≥ 20 mg/mL | greatest aqueous stability | ~7.1% | ~1.7% | 
2 | CC(C)[C@@H]1CC[C@@H](C)C[C@H]1O [menthol, (1R,2S,5R)-2-isopropyl-5-methylcyclohexanol] |  |  |  |  |  | ~0.4 mg/mL
